From ChEMBL document CHEMBL4020847, “Discovery of an Orally Bioavailable Inhibitor of Defective in Cullin Neddylation 1 (DCN1)-Mediated Cullin Neddylation” (J Med Chem, 2018)

Columns and labels:
[1] = Half life in mouse liver microsomes at 0.8 uM by LC-MS/MS analysis; assay type: ADME, microsome
[2] = target: DCN1-like protein 1 (Homo sapiens, UniProt Q96GG9)
Description: Inhibition of biotin-labeled DCN1 (unknown origin) assessed as reduction in protein interaction with Ac-UBE2M12-AlexaFluor488 after 1 hr by TR-FRET assay

[3] = tested on: Plasma; assay: Plasma concentration in mouse at 0.5 to 1.5 mg/kg, iv administered as single dose after 2 hrs; assay type: ADME, organism-based; details: in vivo, BLD = below limit of detection
[4] = tested on: Mus musculus; assay: Half life in mouse at 0.5 to 1.5 mg/kg, iv administered as single dose; assay type: ADME, organism-based; details: in vivo
[5] = Intrinsic clearance in mouse liver microsomes at 0.8 uM by LC-MS/MS analysis; assay type: ADME, microsome; details: read-out: CLH
[6] = tested on: Mus musculus; assay: Clearance in mouse at 0.5 to 1.5 mg/kg, iv administered as single dose; assay type: ADME, organism-based; details: in vivo
[7] = tested on: Mus musculus; assay: Volume of distribution in mouse at 0.5 to 1.5 mg/kg, iv administered as single dose; assay type: ADME, organism-based; details: in vivo
[8] = tested on: Mus musculus; assay: Toxicity in mouse at 0.5 to 1.5 mg/kg, iv administered as single dose up to 48 hrs; assay type: organism-based; details: in vivo

Sequence of DCN1-like protein 1 (Q96GG9 whole entry): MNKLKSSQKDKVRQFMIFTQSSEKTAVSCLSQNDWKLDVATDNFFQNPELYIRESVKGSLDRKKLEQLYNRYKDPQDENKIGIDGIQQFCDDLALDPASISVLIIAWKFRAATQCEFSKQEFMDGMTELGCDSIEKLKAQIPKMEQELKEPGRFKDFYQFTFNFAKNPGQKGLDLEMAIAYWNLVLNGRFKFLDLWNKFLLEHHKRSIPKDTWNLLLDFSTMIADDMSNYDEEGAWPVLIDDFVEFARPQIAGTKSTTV

| Compound | half-life at 0.8 µM [1] | IC50 [2] | also measured |
| --- | --- | --- | --- |
| CCCC(C)N1CCC(N(Cc2ccccc2)C(=O)Nc2ccc3ncsc3c2)CC1 (configuration not stated) | 14.3 min | – | – |
| O=C(Nc1cc(F)cc(C(F)(F)F)c1)N(Cc1ccccc1)C1CCN(Cc2cccc(Oc3ccccc3)c2)CC1 | – | > 24000 nM | – |
| CCCC(C)N1CCC(N(Cc2ccccc2)C(=O)Nc2cccc(C(F)(F)F)c2)CC1 (configuration not stated) | 19.6 to 19.8 min | – | Cp [3]: Bld; t1/2 [4]: 8.4 min; CLint scaled at 0.8 µM [5]: 165 to 170 mL/min/kg; CL [6]: 700 mL/min/kg; Vd [7]: 87.3 to 176 L/kg; Activity [8]: Non-Toxic |
| CCCCN1CCC(N(Cc2ccccc2)C(=O)Nc2cccc(C(F)(F)F)c2F)CC1 | ≤ 6 min | – | – |
| CCCC(C)N1CCC(N(Cc2ccccc2)C(=O)Nc2ccc(C(F)(F)F)nc2C)CC1 (configuration not stated) | > 240 min | 13300 nM | – |
| CCCCN1CCC(N(Cc2ccccc2)C(=O)Nc2cccc(C)c2)CC1 | 10.7 min | 1300 nM | – |
| CCCC(C)N1CCC(N(Cc2ccccc2)C(=O)Nc2cc(C(F)(F)F)ccc2F)CC1 (configuration not stated) | 48.5 min | 7440 nM | – |
| CCCC(C)N1CCC(N(Cc2ccccc2)C(=O)Nc2ccc(Br)cc2)CC1 (configuration not stated) | 23.2 min | 68 nM | – |
| CCCC(C)N1CCC(N(Cc2ccccc2)C(=O)Nc2cccc(F)c2)CC1 (configuration not stated) | ≤ 6 min | 1690 nM | – |
| CCCCN1CCC(N(Cc2ccc3c(c2)OCO3)C(=O)Nc2cccc(C(F)(F)F)c2)CC1 | 14.7 min | – | – |
| CC(C)(C)N1CCC(N(Cc2ccc3c(c2)OCO3)C(=O)Nc2cccc(C(F)(F)F)c2)CC1 | 7.44 min | – | – |
| CCCC(C)N1CCC(N(Cc2ccccc2)C(=O)Nc2ccc3ccccc3c2)CC1 (configuration not stated) | ≤ 6 min | 18 nM | CLint scaled at 0.8 µM [5]: ≥ 500 mL/min/kg |
| Cc1ccc(CN2CCC(N(Cc3ccccc3)C(=O)Nc3cc(F)cc(C(F)(F)F)c3)CC2)o1 | – | > 24000 nM | – |
| Cn1cncc1CN1CCC(N(Cc2ccccc2)C(=O)Nc2cc(F)cc(C(F)(F)F)c2)CC1 | – | > 24000 nM | – |
| CCCCN1CCC(N(Cc2ccccc2)C(=O)Nc2cccc(C#N)c2)CC1 | 9.3 min | 4250 nM | – |
| CCCC(C)N1CCC(N(Cc2ccccc2)C(=O)Nc2cccc(C(C)C)c2)CC1 (configuration not stated) | 13.4 min | 353 nM | – |
| CCCC(C)N1CCC(N(Cc2ccccc2)C(=O)Nc2ccc3ncccc3c2)CC1 (configuration not stated) | – | > 20000 nM | – |
| CCCC(C)N1CCC(N(Cc2ccccc2)C(=O)Nc2ccc(C(F)(F)F)cc2)CC1 (configuration not stated) | 27.3 min | 314 nM | – |
| O=C(Nc1cccc(C(F)(F)F)c1)NC1CCN(Cc2ccccc2)CC1 | 35.5 min | – | – |
| CCCC(C)N1CCC(N(Cc2ccccc2)C(=O)Nc2ccc(Cl)cc2)CC1 (configuration not stated) | 22.1 min | 112 nM | – |
| CCCC(C)N1CCC(N(Cc2ccccc2)C(=O)Nc2ccc3c(c2)OCO3)CC1 (configuration not stated) | ≤ 6 min | – | CLint scaled at 0.8 µM [5]: ≥ 500 mL/min/kg |
| CCCCN1CCC(N(Cc2ccccc2)C(=O)Nc2cccc(C(F)(F)F)c2)CC1 | 9 min | – | – |
| COc1ccccc1CN1CCC(N(Cc2ccccc2)C(=O)Nc2cc(F)cc(C(F)(F)F)c2)CC1 | – | > 25000 nM | – |
| CCCCN1CCC(N(Cc2ccccc2)C(=O)Nc2cccc(F)c2)CC1 | ≤ 6 min | – | CLint scaled at 0.8 µM [5]: ≥ 500 mL/min/kg |
| CCCC(C)N1CCC(N(Cc2ccccc2)C(=O)Nc2ccc(C(C)C)cc2)CC1 (configuration not stated) | 10.6 min | – | – |
| CCCC(C)N1CCC(N(Cc2ccccc2)C(=O)Nc2ccc(C#N)c(C(F)(F)F)c2)CC1 (configuration not stated) | 55.9 min | – | – |
| COc1cccc(CN2CCC(N(Cc3ccccc3)C(=O)Nc3cc(F)cc(C(F)(F)F)c3)CC2)c1 | – | > 28000 nM | – |
| CCCN1CCC(N(Cc2ccc3c(c2)OCO3)C(=O)Nc2cccc(C(F)(F)F)c2)CC1 | < 6 min | – | – |
